Laboratory results: US6673902B2, “Cyclin D binding factor, and uses thereof” (St. Jude Children's Research Hospital, priority 1996, dated 2004)

Assays:
NIH-3T3 fibroblasts = assay: BrdU incorporation in transfected NIH-3T3 fibroblasts; type: cell-based, mouse; details: for % Cells BrdU Positive: Table 2, expression vector 3 μg/10 ml; for % Cells BrdU Positive in 10% FCS: nonstarved cells; for % Cells BrdU Positive in 0.1% FCS: starved cells
Description: BrdU is added to NIH-3T3 cells after the experimental treatment and the cells were incubated for twenty-two hours in DMEM plus 10% fetal calf serum (FCS). The cells were then stained for DMP1 expression and/or BrdU incorporation. The nucleic acids encoding the wildtype DMP1 and the deletion and point mutants had been constructed so as to express the corresponding proteins with Flag-tags. To stain for DMP1 expression, mouse monoclonal anti-Flag antibodies (12 μg/ml) [Kodak] were incubated with the cells in TBS-Ca^+ without FCS for one hour at room temperature. After washing the cells, horse anti-mouse biotinylated antibodies at a 1:500 dilution were added to the cells in TBS plus 5% FCS and incubated for 30 minutes at room temperature. After washing the cells, strefptavidin linked to Texas red [Amersham] was then added at a 1:500 dilution for 30 minutes at room temperature. To stain for BrdU incorporation, 1.5N HCl was added to the cells for ten minutes at room temperature to denature the DNA. After washing the cells, sheep anti-BrdU antibodies [Fitzgerald] at a 1:12 dilution were then added for one hour at room temperature. After washing the cells, rabbit FITC-conjugated anti-sheep antibodies [Vector] at 1:100 dilution was then incubated for 30 minutes at room temperature.
NIH-3T3 cells were placed on cover slides and transfected with the expression vectors (pFLEX-DMP1 or the corresponding vector containing the deletion or point mutants of mouse DMP1 plus or minus cyclin D or E) for fourteen hours. The cells were then washed twice and DMEM plus 10% FCS was added and the cells incubated for eight hours. Half of the cells were starved by washing twice with 0.1% FCS, and then incubated for twenty-four hours in 0.1% FCS in DMEM. The remaining cells were not starved but were incubated for twenty-four hours in DMEM plus 10% FCS without washing. BrdU was added to both groups of cells and the cells were incubated for twenty-two hours in DMEM plus 10% FCS.
The cells were then restimulated to enter the cell cycle synchronously with DMEM plus 10% FCS. At the same time, 5′-Bromo-2′ Deoxyuridine (BrdU) was added to the medium. The cells were fixed 22 hours later in methanol acetone (1:1) and stained for BrdU incorporation and DMP1 expression as described in the Materials and Methods.

[1] = system: DMP1-responsive promoter (pGL2BS2); assay: Transactivation of luciferase reporter plasmid under control of a DMP1-responsive promoter in NIH-3T3 fibroblasts; type: cell-based, mouse; details: vector without insert set to 1.0
Source text: Coexpression of a D-type cyclin with DMP1 overrides the ability of DMP1 to transactivate a luciferase gene under the control of an artificial DMP1-responsive promoter (Table 4), as well as the ability of DMP1 to inhibit cell growth.

32P-BS2 Probe = assay: EMSA with 32P-BS2 probe on transfection lysates of NIH-3T3 fibroblasts; type: binding; details: EMSA, 32P-BS2 probe, lysates of transfected NIH-3T3 fibroblasts
Description: Double-stranded oligonucleotides containing potential DMP1 binding sites (BS1 and BS2) and mutated versions (M1-M4) (FIG. 5B) are end-labeled with ^32P using the Klenow fragment of DNA polymerase and α-^32P-dATP (6000 Ci/mmol; Dupont NEN) (8). Nuclear extracts from mouse NIH-3T3 or CTLL cells are prepared with buffer containing 0.4 M NaCl (2). Mammalian cell extracts (15 μg protein) or Sf9 lysates (corresponding to 5×10^2 infected cells) containing ˜4 ng recombinant DMP1 are mixed with 3 ng of ^32P-labeled probe (1×10^5 cpm) in 15 ul Binding buffer containing 2.5 μg of poly(dI-dC) and 2.5 μg BSA and incubated at 4° C. for 30 minutes. For competition experiments, the indicated amounts of unlabeled oligonucleotides are added to the reactions before addition of the labeled probe. In some experiments, a bacterially produced GST-Ets2 fusion protein containing the complete Ets2 DNA-binding domain (10) is used in place of Sf9 extracts containing recombinant DMP1. Protein-DNA complexes are separated on nondenaturing 4% polyacrylamide gels as described (8). Where indicated, antiserum to DMP1 together with 2.5 μg salmon testis DNA (Sigma; used to reduce nonspecific DNA binding activity caused by serum addition) is preincubated with extracts for 30 minutes at 4° C. prior to initiation of binding reactions. Immune complexes are either removed by adsorption to protein A-Sepharose beads (immunodepletion experiments) or are allowed to remain (“supershift” experiments).
A series of deletion mutants and a point mutant of DMP1, K319E, (in which the lysine at position 319 of SEQ ID NO:1 is replaced by a glutamic acid) were prepared and used to determine the DNA-binding domain of DMP1 by electrophoretic mobility shift assay (EMSA) using a ^32P labeled BS2 probe. The DNA-binding domain of DMP1 was mapped to a central region containing the three MYB repeats plus adjacent flanking sequences: a BstEII to NcoI fragment encoding amino acids 87-458 of SEQ ID NO:1 (Table 1). This region alone was necessary and sufficient for DNA binding.

[2] = additive None, labeled 22 hours
[3] = expression vector 3 μg/10 ml, pGL2BS2 8 μg/10 ml

Luciferase Activity ([1]; Table 4, DMP1 coexpressed with the additive named as label (DMP1 row: no additive)) | Luciferase Activity [1, 3] | Substance | % Cells BrdU Positive (NIH-3T3 fibroblasts) [%] | % Cells BrdU Positive in 10% FCS (NIH-3T3 fibroblasts; [2]) [%] | % Cells BrdU Positive in 10% FCS (NIH-3T3 fibroblasts; additive cyclin D2) [%] | % Cells BrdU Positive in 10% FCS (NIH-3T3 fibroblasts; additive cyclin E) [%] | % Cells BrdU Positive in 0.1% FCS (NIH-3T3 fibroblasts; [2]) [%] | % Cells BrdU Positive in 0.1% FCS (NIH-3T3 fibroblasts; additive cyclin D2) [%] | % Cells BrdU Positive in 0.1% FCS (NIH-3T3 fibroblasts; additive cyclin E) [%] | 32P-labeled Band (32P-BS2 Probe)
8.4 | 8.4 | DMP1: murine cyclin D-associated myb-like transcription factor, 761 amino acids, SEQ ID NO:1 | 12 | 30 | 80 | 82 | 15 | 57 | 56 | Yes
 | 2.3 | M3: DMP1 deletion mutant (NcoI), amino acids 1-458 of SEQ ID NO:1 | 24 |  |  |  |  |  |  | Yes
